From ChEMBL document CHEMBL1133452, “Identification of novel purine and pyrimidine cyclin-dependent kinase inhibitors with distinct molecular interactions and tumor cell growth inhibition profiles” (J Med Chem, 2000) come the findings set out here.

The target of experiment [1] is Cyclin-dependent kinase 2 (Homo sapiens, UniProt P24941). In words: Inhibition of Cyclin-dependent kinase 2 enzyme from starfish oocytes. The arrangement: species or system Marthasterias glacialis, Oocyte.
A further experiment has as its system NCI. Description: cells. The settings on record: Homo sapiens, read-out: Mean GI50.
Experiment [2] addresses Cyclin-dependent kinase 1/cyclin B (Homo sapiens, UniProt O95067+P06493+P14635+Q8WWL7). Description: Inhibition of Cyclin-dependent kinase 1 enzyme from starfish oocytes. The arrangement: species or system Marthasterias glacialis, Oocyte.

Sequence of Cyclin-dependent kinase 1/cyclin B (P06493 whole entry): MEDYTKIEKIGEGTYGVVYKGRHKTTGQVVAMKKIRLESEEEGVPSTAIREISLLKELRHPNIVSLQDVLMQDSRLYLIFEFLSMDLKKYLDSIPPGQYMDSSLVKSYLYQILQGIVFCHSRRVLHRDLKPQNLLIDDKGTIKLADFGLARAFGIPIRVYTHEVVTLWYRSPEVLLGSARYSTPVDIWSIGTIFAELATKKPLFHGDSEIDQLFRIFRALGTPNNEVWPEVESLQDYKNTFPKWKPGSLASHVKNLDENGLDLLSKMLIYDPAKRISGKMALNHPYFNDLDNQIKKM
Sequence of Cyclin-dependent kinase 1/cyclin B (P14635 whole entry): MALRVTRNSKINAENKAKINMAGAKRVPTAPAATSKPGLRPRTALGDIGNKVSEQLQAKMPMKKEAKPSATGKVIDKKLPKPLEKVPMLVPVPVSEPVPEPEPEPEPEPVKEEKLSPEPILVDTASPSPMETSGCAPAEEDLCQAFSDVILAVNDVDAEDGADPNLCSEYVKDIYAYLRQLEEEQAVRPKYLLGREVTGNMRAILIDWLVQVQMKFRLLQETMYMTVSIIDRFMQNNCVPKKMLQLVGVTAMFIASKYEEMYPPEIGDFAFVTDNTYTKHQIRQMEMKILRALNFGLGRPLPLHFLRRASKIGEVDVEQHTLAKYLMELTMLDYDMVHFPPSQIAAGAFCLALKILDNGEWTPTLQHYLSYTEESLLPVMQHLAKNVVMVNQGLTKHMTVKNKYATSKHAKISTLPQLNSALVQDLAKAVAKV
Sequence of Cyclin-dependent kinase 1/cyclin B (Q8WWL7 whole entry): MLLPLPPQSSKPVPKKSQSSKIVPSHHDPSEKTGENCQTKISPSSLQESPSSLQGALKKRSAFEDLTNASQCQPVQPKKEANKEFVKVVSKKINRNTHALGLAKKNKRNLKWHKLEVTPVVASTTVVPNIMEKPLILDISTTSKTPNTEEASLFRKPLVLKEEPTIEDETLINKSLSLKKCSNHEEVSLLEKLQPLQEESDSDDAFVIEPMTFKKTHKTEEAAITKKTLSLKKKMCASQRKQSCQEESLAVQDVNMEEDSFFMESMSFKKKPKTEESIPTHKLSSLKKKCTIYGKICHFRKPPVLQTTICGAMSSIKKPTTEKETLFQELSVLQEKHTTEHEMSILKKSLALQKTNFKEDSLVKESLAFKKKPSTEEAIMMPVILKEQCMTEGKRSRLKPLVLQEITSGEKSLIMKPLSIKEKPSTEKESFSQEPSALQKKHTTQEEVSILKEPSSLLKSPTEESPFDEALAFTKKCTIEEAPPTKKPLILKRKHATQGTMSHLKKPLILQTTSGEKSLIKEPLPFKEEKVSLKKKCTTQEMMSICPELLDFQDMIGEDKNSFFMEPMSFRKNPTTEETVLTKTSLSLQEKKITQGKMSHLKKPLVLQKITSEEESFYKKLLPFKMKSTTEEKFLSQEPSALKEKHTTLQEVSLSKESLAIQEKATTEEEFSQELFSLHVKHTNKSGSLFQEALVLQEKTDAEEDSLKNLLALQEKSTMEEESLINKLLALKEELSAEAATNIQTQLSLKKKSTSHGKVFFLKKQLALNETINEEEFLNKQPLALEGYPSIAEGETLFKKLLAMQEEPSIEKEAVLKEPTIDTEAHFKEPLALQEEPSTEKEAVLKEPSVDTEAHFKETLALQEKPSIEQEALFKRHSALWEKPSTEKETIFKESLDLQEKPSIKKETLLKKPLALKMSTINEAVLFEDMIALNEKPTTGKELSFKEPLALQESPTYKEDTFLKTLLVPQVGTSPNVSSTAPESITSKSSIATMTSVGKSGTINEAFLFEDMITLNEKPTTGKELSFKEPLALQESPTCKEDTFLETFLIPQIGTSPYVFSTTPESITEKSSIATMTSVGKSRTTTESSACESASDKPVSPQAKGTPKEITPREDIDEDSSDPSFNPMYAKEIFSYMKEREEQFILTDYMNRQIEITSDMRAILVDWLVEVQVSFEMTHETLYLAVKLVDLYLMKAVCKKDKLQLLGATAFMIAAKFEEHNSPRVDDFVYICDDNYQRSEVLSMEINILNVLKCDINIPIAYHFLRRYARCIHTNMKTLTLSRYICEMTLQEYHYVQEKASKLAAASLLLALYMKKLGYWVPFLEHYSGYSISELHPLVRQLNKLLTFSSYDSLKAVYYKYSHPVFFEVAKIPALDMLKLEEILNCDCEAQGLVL
Sequence of Cyclin-dependent kinase 1/cyclin B (O95067 whole entry): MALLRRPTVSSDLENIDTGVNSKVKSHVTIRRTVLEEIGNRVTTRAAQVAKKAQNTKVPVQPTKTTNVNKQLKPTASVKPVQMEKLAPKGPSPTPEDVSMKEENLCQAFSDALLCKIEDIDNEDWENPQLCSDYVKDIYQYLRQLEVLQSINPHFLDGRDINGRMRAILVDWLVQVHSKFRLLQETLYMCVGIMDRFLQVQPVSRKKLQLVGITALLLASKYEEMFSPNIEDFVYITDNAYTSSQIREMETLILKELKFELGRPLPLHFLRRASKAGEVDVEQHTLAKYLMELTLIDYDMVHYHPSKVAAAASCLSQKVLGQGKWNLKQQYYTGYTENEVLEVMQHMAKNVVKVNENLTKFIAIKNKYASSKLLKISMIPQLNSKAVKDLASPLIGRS
Description for NCI: Inhibition of NCI cell line proliferation

Compound `c1nc(OCC2CCCCC2)c2nc[nH]c2n1` returned an IC50 in experiment [1] of 13 µM. Further, the 50% growth inhibitory concentration (GI50) with NCI was 55 µM.
Consider `Nc1cc(OCC2CCCCC2)nc(N)n1`, for which the IC50 in experiment [1] and in experiment [2] was over 10 µM each time. For the same compound, the GI50 with NCI is over 100 µM.
As for `Cn1cnc2c(OCC3CCCCC3)nc(N)nc21`, the IC50 in experiment [1] was over 100 µM. Also, the GI50 in the experiment with NCI was over 100 µM.
